The values that follow come from PubChem BioAssay AID1645865 (Buhrlage Lab, Dana-Farber Cancer Institute and Novartis …, 2021).

This test addresses Ubiquitin carboxyl-terminal hydrolase 30 (Homo sapiens) (UniProt Q70CQ3). Kind of test: ubiquitin-specific protease 30 DUB inhibitors, concentration-effect, biochemical, validation of primary actives (AID 1645865). The settings on record: purified USP30, Ub-rhodamine cleavage, fluorescence, 2 h.

Activity calls are given as the source filed them.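 The calls were made as follows: active = maximal inhibition of the USP30 enzyme reaching 30% or more across the dose series; inactive = the rest.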

Ubiquitin carboxyl-terminal hydrolase 30 (Homo sapiens), sequence (Q70CQ3 whole entry, looked up): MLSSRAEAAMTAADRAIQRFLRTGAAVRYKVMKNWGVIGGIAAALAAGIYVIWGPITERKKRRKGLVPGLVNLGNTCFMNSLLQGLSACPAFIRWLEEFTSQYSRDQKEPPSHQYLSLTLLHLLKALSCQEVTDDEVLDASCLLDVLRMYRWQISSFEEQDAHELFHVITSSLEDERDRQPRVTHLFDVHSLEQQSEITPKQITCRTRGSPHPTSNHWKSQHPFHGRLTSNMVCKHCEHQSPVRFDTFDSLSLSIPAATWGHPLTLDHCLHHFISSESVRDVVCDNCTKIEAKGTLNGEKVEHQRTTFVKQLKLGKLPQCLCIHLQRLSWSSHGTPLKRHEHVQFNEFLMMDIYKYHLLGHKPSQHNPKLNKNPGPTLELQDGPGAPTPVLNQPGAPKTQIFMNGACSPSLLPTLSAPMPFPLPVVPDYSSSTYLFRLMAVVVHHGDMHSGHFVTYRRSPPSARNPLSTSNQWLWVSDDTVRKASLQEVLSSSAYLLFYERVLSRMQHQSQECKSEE

As for `CCC(=O)Nc1ccc2c(c1)nc(CSc1nccc(C)n1)n2CC`, the IC50 is > 50 µM (inactive).

On to `Cc1ccc(-c2nc(Cn3cnc4ccccc4c3=O)cs2)cc1`, for which the IC50 is 4.83 µM.

Turning to `O=C(Nc1ccc2c(c1)OCCO2)c1cc(CN2CCCC2)on1`, the IC50 was > 50 µM (inactive).

As for `Cc1ccc(Cl)cc1NC(=O)c1cc(-c2ccccn2)n[nH]1`, the IC50 was 6.42 µM.

In the case of `Cn1c(=O)c2cc(C(=O)Nc3ccc(F)cc3)cnc2n(C)c1=O`, the IC50 was 25.8 µM.

`CC(=O)c1ccc(NC(=O)C2CCN(c3cncnc3N3CCCC3)CC2)cc1`: the IC50 was > 50 µM (inactive).

For `Cc1ccc2c(c1C)NC(=O)[C@]21[C@@H]2C(=O)N(c3cc(Cl)ccc3Cl)C(=O)[C@@H]2[C@@H]2CCCN21`, the IC50 was > 50 µM (inactive).

In the case of `Cc1cc(SCc2ncon2)c(C)cc1Cl`, the IC50 was > 50 µM (inactive).

`Cc1ccc(-n2cc3c(N4CCCC(C(=O)NCC5CCCCC5)C4)ncnc3n2)cc1` (configuration not stated): the IC50 is 40.7 µM.

Turning to `CCCc1nc2sc3c(NCc4ccco4)ncnc3c2c2c1CCC2`, the IC50 is > 50 µM (inactive).

For the compound `CCCCCC(O)c1c(O)cc2c(c1O)C(=O)c1c(O)cc(O)cc1C2=O` (configuration not stated), the IC50 was > 50 µM (inactive).

On to `COc1cccc(NC(=O)c2ccc(-c3csc(C)n3)cc2)c1`, for which the IC50 was > 50 µM (inactive).

On to `CC(C)c1ccc(NC(=O)COC(=O)c2ccc3[nH]c4c(c3c2)CCCC4)cc1`, for which the IC50 was 34.1 µM.

In the case of `O=C(Nc1cccc(OC(=O)c2ccc(Cl)cc2)c1)c1ccc(Cl)cc1`, the IC50 is 16 µM.

Consider `N#Cc1ccccc1Cn1c(=O)n(Cc2ccco2)c(=O)c2ccccc21`, for which the IC50 is > 50 µM (inactive).

For the compound `Cc1nn(-c2cc(N3CCOCC3)ncn2)c(C)c1CCC(=O)Nc1ccc(C(C)C)cc1`, the IC50 was 34.9 µM.

As to `CCOC(=O)c1cc2c(ccn2C)n1CC(=O)N1CCC(C)CC1`, the IC50 was > 50 µM (inactive).

On to `Cc1nc(Nc2ncc(C)s2)cc(C2CN(C(=O)Cc3ccccc3)CCO2)n1` (configuration not stated), for which the IC50 was 33.7 µM.

Regarding `COc1ccc2ncc3c(-c4ccc(C)cc4)nn(-c4ccc(F)cc4)c3c2c1`, the IC50 was 1.82 µM.

`Cc1ccc(NC(=O)c2nnn(-c3ccccc3Br)c2C)cc1C`: the IC50 is > 50 µM (inactive).

Consider `O=C1CC(c2cc3c(cc2Br)OCO3)c2cc3c(cc2N1)OCCO3` (configuration not stated), for which the IC50 was 19.2 µM.

For the compound `CCC(=O)Nc1ccccc1-c1nc2ccccc2n(CC(=O)Nc2cc(OC)ccc2OC)c1=O`, the IC50 was 18.1 µM.

With `O=C(Nc1ccc(-c2nnc3n2CCCCC3)cc1)c1ccc2c(c1)OCO2`, the IC50 is > 50 µM (inactive).

On to `COc1ccc(NC(=O)Cn2c(CS(=O)(=O)c3ccc(C)cc3)nc3ccccc32)cc1`, for which the IC50 is 7.12 µM.

With `COc1cc(NC(=O)Cc2ccccc2)ccc1NC(=O)c1cc2ccccc2o1`, the IC50 was 2.32 µM.

Regarding `O=C(CNc1ccc(F)c(Cl)c1)Nc1ccc2c(c1)OCCO2`, the IC50 was > 50 µM (inactive).

As to `CCOc1ccc(CCNC(=O)c2cccc3c2C(=O)N(CCOC)C3)cc1OCC`, the IC50 is > 50 µM (inactive).

In the case of `COc1ccc2cc3c(nc2c1)OC(=O)N(CCc1cccc(F)c1)C3`, the IC50 is 0.0686 µM.

For `Cc1ccc2nc(NC(=O)CSc3nnc(-c4ccncc4)n3C3CC3)sc2c1`, the IC50 is 2.81 µM.

Consider `CCn1c(SCC(=O)c2c(N)n(CC(C)C)c(=O)n(C)c2=O)nnc1-c1ccccc1`, for which the IC50 was 9.77 µM.

Consider `COc1cccc(NC(=O)C2Cn3ccnc3C3(CCN(C(C)=O)CC3)O2)c1` (configuration not stated), for which the IC50 was > 50 µM (inactive).

As to `CC(C)c1ccc(/C=C/C(=O)N2CCc3ccccc3C2)cc1`, the IC50 was 21.7 µM.

With `CC1(C(=O)NC2CCCC2)Cn2c(cc3ccccc32)C(=O)N1c1ccc(F)cc1` (configuration not stated), the IC50 is > 50 µM (inactive).

On to `O=C(Nc1cc(F)c2nc(N3CCOCC3)ccc2c1)c1ccc(Br)o1`, for which the IC50 is > 50 µM (inactive).

Consider `C[C@]12C(=O)N(c3ccc(C(=O)NCc4ccc(F)cc4)cc3)C(=O)N1CCc1c2[nH]c2ccccc12`, for which the IC50 was 35.8 µM.

Regarding `COCCNC(=O)Cn1c(=O)n(Cc2ccccc2)c(=O)c2c3c(sc21)CCC3`, the IC50 was 31.7 µM.

Consider `COc1ccc(C2C(C(=O)C(C)(C)C)N3c4ccccc4C=CC3C23C(=O)c2ccccc2C3=O)c(OC)c1` (configuration not stated), for which the IC50 is > 50 µM (inactive).

Regarding `Cc1cccc(NC(=O)c2ccn(COc3ccc(F)cc3F)n2)c1C`, the IC50 is > 50 µM (inactive).

As to `CCn1cc(-c2nc(-c3ccccn3)no2)c(=O)c2cc(F)ccc21`, the half-inhibitory concentration (IC50) is 23.1 µM.

Consider `CCOc1ccc2[nH]c(=O)c(CN(C(=O)c3cccs3)C3CCCC3)cc2c1`, for which the IC50 is 10.2 µM.

Consider `CCOC(=O)c1cc2c(ccn2C)n1CC(=O)N1CCc2ccccc2C1`, for which the IC50 was > 50 µM (inactive).

Regarding `Cc1nc(-c2noc3ccc(C(=O)Nc4cccnc4)cc23)cs1`, the IC50 is 14.6 µM.

Consider `COc1ccc(Cn2cnc3c([nH]c4ccc(Br)cc43)c2=O)cc1`, for which the IC50 was 0.833 µM.

On to `O=C(NCCCN1CCc2ccccc2C1)c1cc2c(s1)CS(=O)(=O)C2`, for which the IC50 is > 50 µM (inactive).

In the case of `O=c1c2c(ccn1Cc1cc(F)ccc1F)ccn2Cc1cccnc1`, the IC50 is > 50 µM (inactive).

For `Cc1ccn(-c2ccc(NC(=O)C3CCCCC3)cc2)n1`, the IC50 is 17.2 µM.

On to `Cc1ccc(-c2ncc(C(=O)NCc3cccc(C)c3)c(-c3ccncc3)n2)cc1`, for which the IC50 was > 50 µM (inactive).

Consider `Cc1ccc(-c2nc(N3CCCC(O)C3)ncc2-c2cnccn2)s1` (configuration not stated), for which the IC50 was > 50 µM (inactive).

In the case of `O=C(CCc1ccc(S(=O)(=O)N2CCOCC2)cc1)Nc1ccc2c(c1)OCCO2`, the IC50 was > 50 µM (inactive).

In the case of `COc1ccc(Cl)c(NC(=O)C2CC(=O)Nc3cc(-c4ccccc4)nn32)c1` (configuration not stated), the IC50 was 13.2 µM.

As to `Nc1ccccc1SCc1noc(-c2cccs2)n1`, the IC50 was > 50 µM (inactive).

For the compound `O=C(c1ccco1)N1CCN=C1SCc1ccccc1F`, the IC50 was > 50 µM (inactive).

Take `Cc1cccc(C(=O)N2CCN3Cc4ccccc4N(C)CC3C2)c1` (configuration not stated): the IC50 is > 50 µM (inactive).

As to `NS(=O)(=O)c1cccc(NS(=O)(=O)c2ccc(/C=C/C(=O)OCC(=O)c3ccc(Br)cc3)cc2)c1`, the IC50 is > 50 µM (inactive).

`CC(=O)c1cccc(NC(=O)c2ccc(N3CCCCC3)nn2)c1`: the IC50 was 35.6 µM.

For the compound `Cc1cccc(C(=O)NCc2nc3ccccc3n2Cc2ccccc2C)c1`, the IC50 is 41.8 µM.

As to `N#Cc1c(-c2cccs2)cc(-c2cccs2)[nH]c1=O`, the IC50 was > 50 µM (inactive).

As for `COc1cc(OC)cc(-c2nc(-c3cn(-c4cccc(F)c4)nn3)no2)c1`, the IC50 was 0.143 µM.

Regarding `O=C(Nc1ccc(F)c(Cl)c1)c1ccc(N2CCCCS2(=O)=O)cc1Cl`, the IC50 was > 50 µM (inactive).

In the case of `COc1cc(OC)c(NC(=O)Cn2c(=O)n(Cc3ccccc3Cl)c(=O)c3cc(OC)c(OC)cc32)cc1Cl`, the IC50 is 2.28 µM.

As to `O=C(Nc1ccc2c(c1)OCCO2)C1CCN(C(=O)c2ccccc2)CC1`, the IC50 is > 50 µM (inactive).

On to `Cc1sc(NC(=O)CN2CCc3ccccc3C2)nc1-c1ccc2c(c1)CCN2C(=O)C1CCCCC1`, for which the IC50 is > 50 µM (inactive).

Take `CC(Nc1ncnc2c1sc1nc(N3CCOCC3)c3c(c12)CCC3)c1ccccc1` (configuration not stated): the IC50 is 3.65 µM.

On to `COCC(=O)Nc1cc(F)c2nc(N3CCOCC3)ccc2c1`, for which the IC50 is > 50 µM (inactive).

For the compound `Cc1cc(C)cc(-n2cnc3cc(C(=O)NCCC4=CCCCC4)ccc32)c1`, the IC50 was > 50 µM (inactive).

As for `COc1ccc(S(=O)(=O)N2CCc3ccccc32)cc1C(=O)Nc1ccc2[nH]c(=O)[nH]c2c1`, the IC50 was 2.36 µM.

Regarding `CN1CCN(C(=O)c2cc(-c3ccn(CC4CC4)n3)n3ccccc23)CC1`, the IC50 is > 50 µM (inactive).

In the case of `COc1cc(COc2ccc3c(C)c(CC(=O)N4CC[C@@]5(O)CCCC[C@H]5C4)c(=O)oc3c2C)cc(OC)c1OC`, the IC50 is 34.8 µM.

Regarding `Cn1c(=O)[nH]c(=O)c2c1nc1n(CCc3ccccc3)c(-c3ccccc3)cn21`, the IC50 is 37.5 µM.

`O=c1c(OC2O[C@H](CO)[C@H](O)[C@H](O)[C@H]2O)c(-c2ccc(O)cc2)oc2cc(O)cc(O)c12` (some centres not stated): the IC50 was > 50 µM (inactive).

As to `COc1ccc(OC)c(-n2c(SCC(=O)N3CCc4ccccc43)nnc2-c2cccc(S(=O)(=O)N(C)C)c2)c1`, the IC50 was 3.12 µM.

For `N#Cc1ccc(NC(=O)COC(=O)c2ccc3ccccc3n2)cc1`, the IC50 is > 50 µM (inactive).

In the case of `COc1ccc(/C=C\c2nccc3c2[nH]c2ccccc23)cc1`, the IC50 was > 50 µM (inactive).

As to `O=C(CCCCn1c(=O)[nH]c2ccccc2c1=O)Nc1cccc(Cl)c1`, the IC50 is 21.6 µM.

As to `O=C(Nc1ccc2c(c1)OCCO2)c1cc(CN2CCOCC2)on1`, the IC50 was > 50 µM (inactive).

Consider `O=C(Nc1ccc2c(c1)OCCO2)c1ccc(N2CCCCC2)nn1`, for which the IC50 is > 50 µM (inactive).

Turning to `COc1ccc(CNC(=O)C(C)n2nc(-c3ccco3)c(-c3cc(C)no3)cc2=O)cc1` (configuration not stated), the IC50 is > 50 µM (inactive).

Regarding `CC(CCc1ccccc1)NC(=O)Cn1c(=O)c2cccn2c2ccccc21` (configuration not stated), the IC50 was 4.37 µM.

Take `O=c1[nH]c(C2CCN(S(=O)(=O)c3ccc(S(=O)(=O)NC4CCCCC4)cc3)CC2)nc2c1nnn2Cc1c(F)cccc1Cl`: the IC50 is 22.8 µM.

For the compound `O=C(NCc1ccc2c(c1)OCO2)c1nnc(Cc2ccc(F)cc2)o1`, the IC50 was 44.2 µM.

With `O=C(O)COc1ccccc1/C=C1\CCc2c1nc1ccccc1c2C(=O)O`, the IC50 was > 50 µM (inactive).

Take `CCOC(=O)c1c(C)nc2n(Cc3ccccc3)c3ccccc3n12`: the IC50 was 17.9 µM.

Regarding `CCOC(=O)C1CCN(C(=O)c2ccc3c(c2)NC(=O)C2CCCN32)CC1` (configuration not stated), the IC50 was > 50 µM (inactive).

In the case of `C/C=C1/C2=CCCN3C(=O)O[C@H]([C@H]1O)[C@H]23`, the IC50 was > 50 µM (inactive).

Consider `O=C(CN1C(=O)COc2ccc(Cl)cc21)Nc1cccc2ncccc12`, for which the IC50 is > 50 µM (inactive).

`O=C(NCc1ccccc1Cl)C1CCCN(c2nc3ccsc3c(=O)s2)C1` (configuration not stated): the IC50 is 0.965 µM.

For the compound `CCOc1ccc(NC(=O)c2nc3c(=O)[nH]c4cc(C)ccc4n3n2)cc1`, the IC50 was > 50 µM (inactive).

The term IC50 denotes the concentration at which inhibition is half-maximal.
